The text below walks through data of US12528816B2, “Substituted imidazo [1,2-b] pyridazines and [1, 2, 4] triazolo [ 4,3-b] pyridazines as camkii inhibitors” (Cardurion Pharmaceuticals, INC., priority 2020, dated 2026).

One experiment deals with T1, human CaMKIIδ (Homo sapiens, UniProt Q13557).
T1 construct: Full-length, glutathione-S-transferase(GST)-tagged, human CaMKIIδ was purchased from Carna Biosciences; purchased Carna Biosciences (CaMKIIδ); Wako Pure Chemical Industries (calmodulin) 02-111
Kind of experiment: Evaluation of in vitro CaMKII inhibitory activity (binding assay, TR-FRET). The settings on record: human CaMKIIδ, TR-FRET binding assay; class symbols A/B/C; read-out: Act (CaMKII inhibitory activity, binding assay). The gist of the method:
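Inhibitors, in eight concentrations of 4-fold dilution, were incubated 1 h at room temperature with a protein–fluorescent probe premix preformed 30 min on ice, containing calmodulin and terbium anti-GST antibody. Displacement read by TR-FRET in duplicate; IC50 by logistic fitting.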
(In general: Time-resolved FRET reads energy transfer from a long-lived donor to a nearby acceptor.)
As to `C[C@@H](Cn1cnnn1)Oc1cncc(-c2ccc3ncc(-c4nccc(C(F)F)c4C#N)n3n2)n1` [compound 471], the IC50 is > 100 nM. The same measure, in the same setting: to `CC[C@@H](Cn1cnnn1)Oc1cc(-c2ccc3ncc(-c4nccc(OC)c4C#N)n3n2)ccc1F` [compound 476] belongs < 10 nM; to `COc1ccnc(-c2cnc3ccc(-c4ccc(F)c(N(C)[C@@H](C)Cn5cnnn5)c4)nn23)c1C#N` [compound 479], > 100 nM.

As to `COc1cc(F)cc(-c2cnc3ccc(-c4cccc(N[C@@H](C)Cn5cnnn5)n4)nn23)c1C#N` [compound 480], the IC50 is < 10 nM. As for `COc1cc(F)cc(-c2cnc3ccc(-c4cc(N[C@@H](C)Cn5cnnn5)ccn4)nn23)c1C#N` [compound 481], the IC50 is < 10 nM.

For `COc1cc(F)cc(-c2cnc3ccc(-c4cncc(N[C@@H](C)Cn5cnnn5)c4)nn23)c1C#N` [compound 482], the IC50 was < 10 nM. In the case of `C[C@@H](Cn1cnnn1)Nc1ccnc(-c2ccc3ncc(-c4cc(F)ccc4C#N)n3n2)c1` [compound 483], the IC50 is < 10 nM. Take `C[C@@H](Cn1cnnn1)Nc1cncc(-c2ccc3ncc(-c4cc(F)ccc4C#N)n3n2)n1` [compound 484]: the IC50 was < 10 nM. Same read-out and setting: as for `C[C@@H](Cn1cnnn1)Nc1cc(-c2ccc3ncc(-c4ncccc4C#N)n3n2)ccc1F` [compound 485], the figure is < 10 nM. On the same count and under the same terms, to `COc1ccnc(-c2cnc3ccc(-c4cc(O[C@@H](C)Cn5cnnn5)ccn4)nn23)c1C#N` [compound 486] belongs 10 to 100 nM.

The same experiment, now with this note: in vitro CaMKII inhibitory activity (binding assay), human CaMKIIδ; read-out: Act.
For the compound `C[C@@H](Cn1cnnn1)Oc1cccc(-c2ccc3ncc(-c4nccc(C(F)F)c4C#N)n3n2)n1` [compound 457], the IC50 lay in the range of 10 to 100 nM. Still for that read-out and setting: as for `C[C@@H](Cn1cnnn1)Oc1cccc(-c2ccc3ncc(-c4ncccc4C#N)n3n2)n1` [compound 458], the figure is > 100 nM.

Take `COc1ncnc(-c2cnc3ccc(-c4cccc(O[C@@H](C)Cn5cnnn5)n4)nn23)c1C#N` [compound 459]: the IC50 is > 100 nM. Same read-out and setting: to `C[C@@H](Cn1cnnn1)Oc1cccc(-c2ccc3ncc(-c4ccc(F)c(F)c4C#N)n3n2)n1` [compound 460] belongs 10 to 100 nM; to `C[C@@H](Cn1cnnn1)Oc1cccc(-c2ccc3ncc(-c4c(F)cccc4C#N)n3n2)n1` [compound 461], 10 to 100 nM; to `COCc1cc(F)cc(-c2cnc3ccc(-c4cccc(O[C@@H](C)Cn5cnnn5)n4)nn23)c1C#N` [compound 462], < 10 nM. Regarding `COc1cc(-c2cnc3ccc(-c4cccc(O[C@@H](C)Cn5cnnn5)n4)nn23)c(C#N)cn1` [compound 463], the IC50 was < 10 nM.

On to `C[C@@H](Cn1cnnn1)Oc1cccc(-c2ccc3ncc(-c4cc(=O)[nH]cc4C#N)n3n2)n1` [compound 464], for which the IC50 was < 10 nM.

`C[C@@H](Cn1cnnn1)Oc1cccc(-c2ccc3ncc(-c4cc(=O)n(C)cc4C#N)n3n2)n1` [compound 465]: the IC50 was < 10 nM.

With `C[C@@H](Cn1cnnn1)Oc1cccc(-c2ccc3ncc(-c4ccc(C#N)c(F)n4)n3n2)c1` [compound 468], the IC50 was < 10 nM. The same measure, in the same setting: as for `COCCOc1ccnc(-c2cnc3ccc(-c4cccc(O[C@@H](C)Cn5cnnn5)c4)nn23)c1C#N` [compound 469], the figure is < 10 nM; as for `COc1cncc(-c2cnc3ccc(-c4ccc(F)c(O[C@@H](C)Cn5cnnn5)c4)nn23)c1C#N` [compound 470], < 10 nM.
